Earlier results in patent US11278622B2, “Ceftolozane antibiotic compositions” (Merck Sharp & Dohme Corp., priority 2013, dated 2022).

Test system: P. aeruginosa

Compound: Cn1c(N)c(NC(=O)NCCN)c[n+]1CC1=C(C(=O)O)N2C(=O)[C@@H](NC(=O)/C(=N\OC(C)(C)C(=O)O)c3nsc(N)n3)[C@H]2SC1 [ceftolozane, (6R,7R)-3-[(5-amino-4-{[(2-aminoethyl)carbamoyl]amino}-1-methyl-1H-pyrazol-2-ium-2-yl)methyl]-7-({(2Z)-2-(5-amino-1,2,4-thiadiazol-3-yl)-2-[(1-carboxy-1-methylethoxy)imino]acetyl}amino)-8-oxo-5-thia-1-azabicyclo[4.2.0]oct-2-ene-2-carboxylate]
- MIC90: ≤ 2 µg/mL
